Experimental findings from patent publication US12636268B2, “CXCL8 inhibitors for use in the treatment of COVID-19” (Dompe' Farmaceutici SPA, priority 2020, dated 2026) are described below.

This assay concerns COVID-19 patients with severe pneumonia. In words: Phase 2 clinical study of Reparixin plus standard of care in COVID-19 patients with severe pneumonia. Format: in vivo, human. The note with it: for Composite endpoint, first occurrence (% patients) / Composite endpoint, first occurrence (n patients): oral tablets 1200 mg TID plus standard of care. The text has this:
A phase 2 clinical study has been conducted to assess efficacy and safety of Reparixin in COVID-19 patients with severe pneumonia.
The patients participating to the trial satisfied the following inclusion criteria: • a) at least one of the following: • respiratory distress, RR≥30 breaths/min without oxygen; • Partial arterial oxygen pressure (PaO2)/Fraction of inspiration O2 (FiO2)>100<300 mmHg (1 mmHg=0.133 kPa). • b) chest imaging confirming lung involvement and inflammation. • c) inflammatory status as documented by at least one of the following: Lactate dehydrogenase (LDH)>normal range, C-reactive protein (CRP)≥100 mg/L or IL-6≥40 pg/mL, serum ferritin ≥900 ng/mL, XDP >20 mcg/mL.
Fourteen patients received the standard of care treatment only (Control group).
Thirty-two patients received Reparixin oral tablets 1200 mg TID in addition to the standard of care treatment (Reparixin group) for a maximum of 21 days.
In both groups, where necessary due to the presence of concomitant pathologies (diabetes, hypertension, cancer etc. . . ), the patients also continued to receive specific treatments for these.
The first occurrence of the composite primary endpoint (at least one of the following events: death, supplemental oxygen requirement, invasive mechanical ventilation use, admission to ICU, and use of a rescue medication for any reason) was evaluated in all the patients and the data obtained are shown in Table 2 below.
The data collected in the clinical trial were analyzed by means of the Kaplan-Meier methodology and the log-rank test was used to test for differences between treatment groups. The Kaplan-Meier method is a well-established method to analyse the patterns of events over time to estimate the probability of being free of event. The form of the estimated “survival curves” is a step function, with steps down occurring at those time points where there are events. As patients have events or are censored (patients who exit the analyses for other reasons than events) the number of patients remaining evaluable in the trial in each of the treatment groups is diminishing. The probabilities of being free of event are, as a consequence, estimated from fewer and fewer patients as time progresses. To give information in relation to this, the number of patients at risk at various time points are provided: these are the numbers of patients still at risk of having their first occurrence of the composite endpoint.

[1] abbreviates: Reparixin plus standard of care vs standard of care only.

As for `CC(C)Cc1ccc([C@@H](C)C(=O)NS(C)(=O)=O)cc1` [Reparixin, R-(-)-2-(4-isobutylphenyl)propionyl methansulfonamide], the “Composite endpoint, first occurrence (% patients)” value (Day 1, 32 evaluable patients) is 9.4%. For the same compound, the “Composite endpoint, first occurrence (n patients)” value (Day 1, 32 evaluable patients, composite = death, supplemental oxygen requirement, invasive mechanical ventilation use, admission to ICU, or rescue medication) was 3. Moreover, for the setting “Day 2, 27 evaluable patients”, the “Composite endpoint, first occurrence (% patients)” value was 7.4% and the “Composite endpoint, first occurrence (n patients)” value came out at 2. Also, the “Time of recovery of patients” value (Reparixin group compared to the Control group) was “significantly reduced”. For the same compound, for the setting “Reparixin group vs Control group (standard of care only), log-rank test p-value 0.0031”, the “Freedom from composite event over time (Kaplan-Meier, FIG. 1)” value is reported as “statistically significant higher freedom from event”. Moreover, the “Progression to more severe respiratory disease” value (Reparixin group vs Control group, shown by incidence of the composite endpoints) is on record as “prevents the progression to more severe respiratory disease”. For the same compound, under setting [1], the “Days of oxygen use” value is listed as “fewer days of oxygen use” and the “Duration of mechanical ventilation” value is “shorter subsequent duration of mechanical ventilation”. In addition, the Respiratory function entry (patients in the Reparixin group) is “improved respiratory function”.
